Results: ChEMBL document CHEMBL5576127, “New CDDO Arylboronate Ester Derivatives with High Selectivity and Low Toxicity” (J Med Chem, 2024)
Calls of active or inactive are those of the source. The rule behind the calls is not given here.

Tests used:
[1] = Acute toxicity in ip dosed ICR mouse assessed as effect on lung by H and E staining based analysis; assay type: organism-based; conditions: in vivo
BGC-823 [2] = experiment: Induction of apoptosis in human BGC-823 cells assessed as early apoptotic cells at 3 uM incubated for 48 hrs by Annexin V-FITC/PI staining based flow cytometric analysis ( Rvb = 1.68 %); assay type: functional
[3] = Acute toxicity in ip dosed ICR mouse assessed as effect on kidney by H and E staining based analysis; assay type: organism-based; conditions: in vivo
HepG2 = experiment: Antiproliferative activity against human HepG2 cells assessed as inhibition of cell proliferation incubated for 48 hrs by MTT assay; assay type: functional, cell-based; conditions: HepG2, 48 h
BGC-823 [4] = experiment: Antiproliferative activity against human BGC-823 cells assessed as inhibition of cell proliferation preincubated with H2O2 for 2 hrs followed by compound addition and measured after 48 hrs by MTT assay; assay type: functional, cell-based
NCI-N87 = experiment: Antiproliferative activity against human NCI-N87 cells assessed as inhibition of cell proliferation incubated for 48 hrs by MTT assay; assay type: functional, cell-based; conditions: NCI-N87, 48 h
[5] = Acute toxicity in ip dosed ICR mouse assessed as lethal dose; assay type: organism-based; conditions: in vivo
BGC-823 [6] = experiment: Antiproliferative activity against human BGC-823 cells assessed as inhibition of cell proliferation incubated for 48 hrs by MTT assay; assay type: functional, cell-based; conditions: BGC-823, 48 h
BGC-823 [7] = experiment: Antiproliferative activity against human BGC-823 cells assessed as reduction in cell viability at 0.52 to 7.68 uM preincubated with H2O2 for 2 hrs followed by compound addition and measured after 48 hrs by MTT assay; assay type: functional, cell-based; conditions: dose 0.52-7.68 µM
[8] = Acute toxicity in ip dosed ICR mouse assessed as mortality rate by measuring ratio at 1.93 logarithm of dose relative to total number of mouse; assay type: organism-based; conditions: in vivo
BGC-823 [9] = experiment: Induction of ROS generation in human BGC-823 cells assessed as cells with green fluorescence at 6 uM incubated for 24 hrs by DCFH-DA staining based analysis relative to control; assay type: functional
BGC-823 [10] = experiment: Induction of apoptosis in human BGC-823 cells assessed as viable cells at 1.5 uM incubated for 48 hrs by Annexin V-FITC/PI staining based flow cytometric analysis ( Rvb = 90.09 %); assay type: functional; conditions: read-out: Activity
BGC-823 [11] = experiment: Cell cycle arrest in human BGC-823 cells assessed as accumulation of cells at G2/M phase incubated for 24 hrs by PI staining based flow cytometric analysis; assay type: functional
BGC-823 [12] = experiment: Induction of apoptosis in human BGC-823 cells assessed as late apoptotic cells at 6 uM incubated for 48 hrs by Annexin V-FITC/PI staining based flow cytometric analysis ( Rvb = 5.61 %); assay type: functional
[13] = Acute toxicity in ip dosed ICR mouse assessed as effect on spleen by H and E staining based analysis; assay type: organism-based; conditions: in vivo
[14] = Selectivity index, ratio of IC50 for cytotoxicity against human GES1 cells to IC50 for antiproliferative activity against human BGC-823 cells in presence of H2O2; assay type: toxicity, cell-based; conditions: GES1 cells and BGC-823 cells, read-out: Ratio IC50
BGC-823 [15] = experiment: Induction of apoptosis in human BGC-823 cells assessed as early apoptotic cells at 6 uM incubated for 48 hrs by Annexin V-FITC/PI staining based flow cytometric analysis ( Rvb = 1.68 %); assay type: functional
BGC-823 [16] = experiment: Antiproliferative activity against human BGC-823 cells assessed as reduction in cell viability at 0.52 to 7.68 uM preincubated with NAC for 2 hrs followed by compound addition and measured after 48 hrs by MTT assay; assay type: functional, cell-based; conditions: dose 0.52-7.68 µM
BGC-823 [17] = experiment: Antitumor activity against human BGC-823 cells xenografted in BALB/c nude mouse assessed as tumor growth inhibition at 5 mg/kg, ip administered for 21 days relative to control; assay type: functional; conditions: BGC-823, 504 h, time 21 day, read-out: TGI
BGC-823 [18] = experiment: Induction of apoptosis in human BGC-823 cells assessed as necrotic cells at 3 uM incubated for 48 hrs by Annexin V-FITC/PI staining based flow cytometric analysis ( Rvb = 1.79 %); assay type: functional
BGC-823 [19] = experiment: Induction of apoptosis in human BGC-823 cells assessed as late apoptotic cells at 1.5 uM incubated for 48 hrs by Annexin V-FITC/PI staining based flow cytometric analysis ( Rvb = 5.61 %); assay type: functional
BGC-823 [20] = experiment: Induction of apoptosis in human BGC-823 cells assessed as viable cells at 6 uM incubated for 48 hrs by Annexin V-FITC/PI staining based flow cytometric analysis ( Rvb = 90.09 %); assay type: functional; conditions: read-out: Activity
[21] = Drug release in human BGC-823 cells assessed as increase in 4-((4-hydroxybenzoyl)oxy)butyl (4aS,6aR,6bS,8aR,12aS,14aR,14bS)-11-cyano-2,2,6a,6b,9,9,12a-heptamethyl-10,14-dioxo-1,3,4,5,6,6a,6b,7,8,8a,9,10,12a,14,14a,14b-hexadecahydropicene-4a(2H)-carboxylate concentration incubated for 4 hrs in absence of H2O2 by LC-MS analysis; assay type: ADME, cell-based; conditions: bgc-823, 4 h
SGC-7901 = experiment: Antiproliferative activity against human SGC-7901 cells assessed as inhibition of cell proliferation incubated for 48 hrs by MTT assay; assay type: functional, cell-based; conditions: SGC-7901, 48 h
BGC-823 [22] = experiment: Induction of apoptosis in human BGC-823 cells assessed as viable cells at 3 uM incubated for 48 hrs by Annexin V-FITC/PI staining based flow cytometric analysis ( Rvb = 90.09 %); assay type: functional; conditions: read-out: Activity
[23] = Cytotoxicity against human L02 cells assessed as inhibition of cell proliferation incubated for 48 hrs by MTT assay; assay type: toxicity, cell-based
BGC-823 [24] = experiment: Antitumor activity against human BGC-823 cells xenografted in BALB/c nude mouse assessed as nuclear condensation in tumor at 5 mg/kg, ip administered for 21 days by H and E staining based analysis; assay type: functional, organism-based; conditions: time 21.0 day
[25] = Binding affinity to DTT in PBS assessed as UV peak appearance at 288 nm at 360 uM by UV-Vis spectra analysis
[26] = Acute toxicity in ip dosed ICR mouse assessed as effect on heart by H and E staining based analysis; assay type: organism-based; conditions: in vivo
[27] = Cytotoxicity against human MCF-10A cells assessed as inhibition of cell proliferation incubated for 48 hrs by MTT assay; assay type: toxicity, cell-based
BGC-823 [28] = experiment: Induction of apoptosis in human BGC-823 cells assessed as late apoptotic cells at 3 uM incubated for 48 hrs by Annexin V-FITC/PI staining based flow cytometric analysis ( Rvb = 5.61 %); assay type: functional
BGC-823 [29] = experiment: Induction of apoptosis in human BGC-823 cells assessed as early apoptotic cells at 1.5 uM incubated for 48 hrs by Annexin V-FITC/PI staining based flow cytometric analysis ( Rvb = 1.68 %); assay type: functional
[30] = Toxicity in BALB/c nude mouse xenografted with human BGC-823 cells assessed as change in body weight at 5 mg/kg, ip administered for 21 days; assay type: organism-based; conditions: in vivo, 504 h, time 21 day
BGC-823 [31] = experiment: Induction of apoptosis in human BGC-823 cells assessed as necrotic cells at 1.5 uM incubated for 48 hrs by Annexin V-FITC/PI staining based flow cytometric analysis ( Rvb = 1.79 %); assay type: functional
Cell membrane [32] = experiment: Induction of mitochondrial membrane potential loss in human BGC-823 cells assessed as increase in number of cells with J-monomers by measuring green fluorescence at 6 uM incubated for 24 hrs by JC-1 staining based flow cytometric analysis (reference value: 0.33%); assay type: cell membranes
BGC-823 [33] = experiment: Antitumor activity against human BGC-823 cells xenografted in BALB/c nude mouse assessed as nuclear fragmentation in tumor at 5 mg/kg, ip administered for 21 days by H and E staining based analysis; assay type: functional, organism-based; conditions: time 21.0 day
[34] = GSH reactivity in human BGC-823 cells assessed as GSSG/GSH ratio at 2 uM incubated for 24 hrs by microplate reader analysis (reference value: 0.34); assay type: ADME, cell-based; conditions: bgc-823, 24 h
BGC-823 [35] = experiment: Induction of apoptosis in human BGC-823 cells assessed as necrotic cells at 6 uM incubated for 48 hrs by Annexin V-FITC/PI staining based flow cytometric analysis ( Rvb = 1.79 %); assay type: functional
[36] = Acute toxicity in ip dosed ICR mouse assessed as effect on liver by H and E staining based analysis; assay type: organism-based; conditions: in vivo
[37] = Cytotoxicity against human GES1 cells assessed as inhibition of cell proliferation incubated for 48 hrs by MTT assay; assay type: toxicity, cell-based
BGC-823 [38] = experiment: Antitumor activity against human BGC-823 cells xenografted in BALB/c nude mouse assessed as increase in ROS level in tumor at 5 mg/kg, ip administered for 21 days by DHE staining based analysis; assay type: functional, organism-based; conditions: time 21.0 day
MGC-803 = experiment: Antiproliferative activity against human MGC-803 cells assessed as inhibition of cell proliferation incubated for 48 hrs by MTT assay; assay type: functional, cell-based; conditions: MGC-803, 48 h
Cell membrane [39] = experiment: Induction of mitochondrial membrane potential loss in human BGC-823 cells assessed as decrease in number of cells with J-aggregates by measuring red fluorescence at 6 uM incubated for 24 hrs by JC-1 staining based flow cytometric analysis (reference value: 99.7 %); assay type: cell membranes; set-up: scale not given: the % may be the effect or the level left
[40] = Acute toxicity in ip dosed ICR mouse assessed as animal death at 1.82 logarithm of dose; assay type: organism-based; conditions: in vivo
MCF7 = experiment: Antiproliferative activity against human MCF7 cells assessed as inhibition of cell proliferation incubated for 48 hrs by MTT assay; assay type: functional, cell-based; conditions: MCF7, 48 h

For CC1(C)CC[C@]2(C(=O)OCCCCOC(=O)c3ccc(OCc4ccc(B5OC(C)(C)C(C)(C)O5)cc4)cc3)CC[C@]3(C)[C@H](C(=O)C=C4[C@@]5(C)C=C(C#N)C(=O)C(C)(C)[C@@H]5CC[C@]43C)[C@@H]2C1, the Activity [1] was “Non-Toxic”, the Activity (BGC-823 [2]) was 2.13% and the Activity [3] was “Non-Toxic”. It also gave an IC50 (HepG2) of 6.5 µM, an IC50 (BGC-823 [4]) of 1200 nM and an IC50 (NCI-N87) of 2500 nM. For the same compound, the LD50 [5] was 91.2 mg/kg, the IC50 (BGC-823 [6]) was 2300 nM and the Activity (BGC-823 [7]) was “Active”. The Ratio [8] was 0.17, the Activity (BGC-823 [9]) was 35.7% and the viability at 1.5 µM (BGC-823 [10]) was 87.1%. For the same compound, the Activity (BGC-823 [11]) was “Dose-Dependent Effect”, the Activity (BGC-823 [12]) was 14.9% and the Activity [13] was “Non-Toxic”. For the same compound, the selectivity ratio [14] was 4, the Activity (BGC-823 [15]) was 3.71% and the Activity (BGC-823 [16]) was “inactive”. It also gave an inhibition in vivo at 5 mg/kg (BGC-823 [17]) of 86.2%, an Activity (BGC-823 [18]) of 5.24% and an Activity (BGC-823 [19]) of 7.62%. The viability at 6 µM (BGC-823 [20]) was 75.8%, the Drug metabolism [21] was “Metabolite_Notdetected” and the IC50 (SGC-7901) was 3.2 µM. For the same compound, the viability at 3 µM (BGC-823 [22]) was 82.8%, the IC50 at 48 h [23] was 6.5 µM and the Activity (BGC-823 [24]) was “Active”. For the same compound, the Activity [25] was “inactive”, the Activity [26] was “Non-Toxic” and the IC50 at 48 h [27] was 5 µM. For the same compound, the Activity (BGC-823 [28]) was 9.84%, the Activity (BGC-823 [29]) was 2.08% and the Activity [30] was “Non-Toxic”. The Activity (BGC-823 [31]) was 3.23%, the Activity (Cell membrane [32]) was 37.1% and the Activity (BGC-823 [33]) was “Active”. For the same compound, the Ratio [34] was 0.48, the Activity (BGC-823 [35]) was 5.58% and the Activity [36] was “Non-Toxic”. For the same compound, the IC50 at 48 h [37] was 4.5 µM, the Activity (BGC-823 [38]) was “Active” and the IC50 (MGC-803) was 3.6 µM. The Activity (Cell membrane [39]) was 62.7%, the Activity [40] was “Toxic” and the IC50 (MCF7) was 2900 nM.
